15 compounds from ChEMBL document CHEMBL1154515, “Gamma-pyrone natural products--a privileged compound class provided by nature” (Bioorg Med Chem, 2009) can be followed below.

The structures appear in SMILES notation. Values after ≈ are worked out from the molar mass of the structure shown. Active and inactive are the calls of the source. The rule behind the calls is not given here.

The nature of data set [1]: Inhibition of NADH fumarate reductase.
In another data set the test system is HT-1080. Briefly: Cytotoxicity against human HT1080 cells. The class given is functional, cell-based.
A further data set relates to Helicobacter pylori. Briefly: Antimicrobial activity against Helicobacter pylori. The data set is classed as functional.
The target in data set [2] is T1, Potassium voltage-gated channel subfamily A member 3 (Homo sapiens, UniProt P22001). Kind of data set: Inhibition of voltage-gated Kv1.3 potassium channel expressed in CHO cells by 86Rb efflux experiment. The data set is classed as cell-based.
The test system of another data set is T-cell. Briefly: Inhibition of Concanavalin A-induced T cell proliferation. The data set is classed as functional, cell-based.
Data set [3] deals with Leptinotarsa decemlineata. Kind of data set: Insecticidal activity against Leptinotarsa decemlineata. The class given is functional.
The next data set deals with B-cell. Kind of data set: Inhibition of LPS-induced B cell proliferation. The data set is classed as functional, cell-based.
A short description of data set [4]: Toxicity in ip dosed rat. The class given is organism-based. Particulars: in vivo.
Data set [5] concerns the target T1, Potassium voltage-gated channel subfamily A member 3. Kind of data set: Antagonist activity at voltage-gated Kv1.3 potassium channel. The class given is functional.
The nature of data set [6]: Depolarization of human T cells by electrophysiological method. The class given is functional, cell-based. Conditions: T-cell.
In data set [7] the test system is Leptinotarsa decemlineata. Briefly: Insecticidal activity against Leptinotarsa decemlineata at 1000 ppm. The class given is functional, organism-based.

T1 sequence (P22001 whole entry): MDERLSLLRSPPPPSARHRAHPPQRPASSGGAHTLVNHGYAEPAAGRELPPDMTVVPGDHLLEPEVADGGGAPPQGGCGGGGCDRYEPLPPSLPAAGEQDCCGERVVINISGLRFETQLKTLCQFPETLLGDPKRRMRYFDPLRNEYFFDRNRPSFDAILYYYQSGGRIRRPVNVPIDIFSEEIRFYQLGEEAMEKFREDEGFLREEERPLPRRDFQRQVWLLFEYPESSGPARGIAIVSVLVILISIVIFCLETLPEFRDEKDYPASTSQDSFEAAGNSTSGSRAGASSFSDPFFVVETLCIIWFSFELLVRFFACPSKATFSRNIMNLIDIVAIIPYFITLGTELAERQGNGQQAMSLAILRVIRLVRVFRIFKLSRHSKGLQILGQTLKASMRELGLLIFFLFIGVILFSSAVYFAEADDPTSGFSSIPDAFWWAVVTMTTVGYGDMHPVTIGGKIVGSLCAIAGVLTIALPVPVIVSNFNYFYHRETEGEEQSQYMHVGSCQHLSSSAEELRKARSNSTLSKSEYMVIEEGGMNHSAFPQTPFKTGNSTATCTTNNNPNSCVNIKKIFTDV

By IC50 is commonly meant the concentration at which inhibition is half-maximal. The low end stands for higher potency, the high end for lower potency. In data set [1], `COc1oc([C@H]2C/C(=C/C(C)=C/C(C)=C/C(C)=C/c3ccc([N+](=O)[O-])cc3)CO2)c(C)c(=O)c1C` [SPECTINABILIN] returned a half-maximal inhibitory concentration (IC50) of 15 nM.

In the data set with HT-1080, `COc1oc([C@H]2C/C(=C/C(C)=C\c3ccc([N+](=O)[O-])cc3)CO2)c(C)c(=O)c1C` [ALLOAUREOTHIN] displayed an IC50 of 30000 nM.

As a reminder, the MIC is the lowest concentration found to suppress growth. Regarding `C/C=C(\C)[C@H](O)[C@H](C)/C=C(C)/C=C/C/C(C)=C/Cc1oc(OC)cc(=O)c1C` [ACTINOPYRONE B], the minimal inhibitory concentration (MIC) in the data set on Helicobacter pylori was 0.1 ng/mL (≈ 0.259 nM).

The compound `C/C=C(\C)[C@H](O)[C@H](C)/C=C(C)/C=C/C/C(C)=C/Cc1oc(OC)c(C)c(=O)c1C` [ACTINOPYRONE A] returned an MIC against Helicobacter pylori of 0.1 ng/mL (≈ 0.25 nM).

In data set [2], `C=C1CC[C@@H]2[C@](C)(CC[C@H]3OC(C(C)(C)O)=C(O)C[C@]23C)[C@@H]1Cc1c(OC)oc(C)c(C)c1=O` [CANDELALIDE B] showed an IC50 of 1200 nM.

`COc1oc([C@@H]2C[C@@]3(CO2)[C@H](c2ccc([N+](=O)[O-])cc2)[C@]2(C)C=C(C)C=C(C)[C@@H]23)c(C)c(=O)c1C`: the half-maximal inhibitory concentration (IC50) in the data set on T-cell amounted to 200 nM.

For orientation: LC50 means the concentration that kills 50% of the test population. A low value points to a more lethal substance. As to `C=C1CC[C@H]2[C@](C)(CCC=C(C)C)[C@@H](OC(=O)[C@H](O)[C@@H](C)CC)CC[C@]2(C)[C@@H]1Cc1c(OC)oc(C)c(C)c1=O` [VIRIDOXIN B], the 50% lethal concentration (LC50) in [3] is 50700 ng/mL (≈ 91100 nM).

In the data set on B-cell, `COc1oc([C@H]2C[C@@]3(CO2)[C@H](c2ccc([N+](=O)[O-])cc2)[C@]2(C)C=C(C)C=C(C)[C@@H]23)c(C)c(=O)c1C` showed a half-maximal inhibitory concentration (IC50) of 800 nM.

Compound `C=C1CC[C@@H]2[C@](C)(CC[C@H]3OC=CC[C@]23C)[C@@H]1Cc1c(OC)oc(C)c(C)c1=O` [CANDELALIDE A] yielded a half-inhibitory concentration (IC50) in data set [2] of 3700 nM.

In general, LD50 refers to the dose expected to kill half of the subjects tested. High values mean a less toxic substance, low ones a more toxic substance. Regarding `C=C1CC[C@@H]2[C@@](C)(CCC(C)(C)O)[C@@H](O)CC[C@@]2(C)[C@H]1Cc1c(OC)oc(C)c(C(=O)OC)c1=O` [COLLECTOTRICHIN A], the 50% lethal dose (LD50) in [4] amounted to 16 mg/kg.

Compound `C=C1CC[C@@H]2[C@](C)(CC[C@H]3OC(C(C)(C)O)=CC[C@]23C)[C@H]1Cc1c(OC)oc(C)c(C)c1=O` [CANDELALIDE C] gave an IC50 in data set [2] of 2500 nM.

Broadly, the EC50 is the concentration at which the effect is half-maximal. In data set [5], `C=C1CC[C@H]2[C@](C)(CCC=C(C)C)[C@@H](OC(C)=O)CC[C@]2(C)[C@@H]1Cc1c(OC)oc(C)c(C)c1=O` [NALANTHALIDE] came in with a 50% inhibitory concentration (IC50) of 3900 nM. Besides, in [6], the response was half-maximal at 500 nM (EC50).

Consider `C/C=C(\C)[C@H](O)[C@H](C)/C=C(C)/C=C/C/C(C)=C/Cc1oc(OC)c(CC)c(=O)c1C` [ACTINOPYRONE C], for which the MIC in the data set with Helicobacter pylori is 0.1 ng/mL (≈ 0.241 nM).

In data set [3], `C=C1CC[C@H]2[C@](C)(CCC=C(C)C)[C@@H](OC(=O)[C@H](OC)[C@@H](C)CC)CC[C@]2(C)[C@@H]1Cc1c(OC)oc(C)c(C)c1=O` [VIRIDOXIN A] came in with an LC50 of 39700 ng/mL (≈ 69600 nM).

In the case of `C=C1CC[C@@H]2[C@](C)(CC[C@H](O)[C@@]2(C)CCC=C(C)C)[C@@H]1Cc1c(OC)oc(C)c(C)c1=O`, in [7], the result was inactive.
